Measurements taken from the CheMixHub viscosity set.

Assay: xn = mol fraction of the nth substance listed

C=Cc1ccccc1 + CCCCCCCCCCCC
viscosity [mPa·s], 101.33 kPa
Conditions	x1 = 0.0973	x1 = 0.2027	x1 = 0.2991	x1 = 0.4009	x1 = 0.5183	x1 = 0.5987	x1 = 0.699	x1 = 0.8005	x1 = 0.8996
298.15 K	1.243	1.143	1.062	0.99	0.909	0.866	0.822	0.774	0.739
303.15 K	1.151	1.051	0.985	0.92	0.847	0.81	0.769	0.722	0.688
308.15 K	1.059	0.98	0.915	0.854	0.791	0.76	0.724	0.691	0.656

BrC(Br)Br + CCCCCCCCCO
viscosity [mPa·s], 101.3 kPa
Conditions	x1 = 0.105	x1 = 0.299	x1 = 0.404	x1 = 0.504	x1 = 0.604	x1 = 0.704	x1 = 0.802	x1 = 0.903
298.15 K	7.847	5.743	5.079	4.228	3.571	2.984	2.492	2.12
303.15 K	6.517	4.87	4.38	3.693	3.151	2.669	2.266	1.963
308.15 K	5.421	4.144	3.777	3.24	2.802	2.399	2.065	1.818

BrC(Br)Br + CCCCCCCO
viscosity [mPa·s], 101.3 kPa
Conditions	x1 = 0.102	x1 = 0.204	x1 = 0.301	x1 = 0.405	x1 = 0.503	x1 = 0.597	x1 = 0.699	x1 = 0.801	x1 = 0.901
298.15 K	5.359	4.647	4.131	3.544	3.133	2.755	2.44	2.17	1.982
303.15 K	4.524	3.988	3.547	3.093	2.773	2.457	2.199	1.992	1.844
308.15 K	3.863	3.422	3.084	2.712	2.461	2.205	1.99	1.822	1.713

CCCCCCCCO + CCCCCCCO
viscosity [mPa·s]
Conditions	293.15 K	298.15 K	308.15 K	318.15 K
101.33 kPa, x2 = 0.1671	8.821	7.374	–	–
101.33 kPa, x2 = 0.3071	8.507	7.128	–	–
101.33 kPa, x2 = 0.4819	8.113	6.847	–	–
101.33 kPa, x2 = 0.6319	7.827	6.588	–	–
101.33 kPa, x2 = 0.6868	7.688	6.471	–	–
101.33 kPa, x2 = 0.8784	7.302	6.161	–	–
101.8 kPa, x2 = 0.1105	–	7.442	5.362	3.936
101.8 kPa, x2 = 0.3246	–	7.122	5.139	3.78
101.8 kPa, x2 = 0.5285	–	6.742	4.884	3.607
101.8 kPa, x2 = 0.723	–	6.415	4.676	3.463
101.8 kPa, x2 = 0.9101	–	6.128	4.474	3.324

BrC(Br)Br + CCCCCCO
viscosity [mPa·s], 101.3 kPa
Conditions	x1 = 0.097	x1 = 0.199	x1 = 0.298	x1 = 0.403	x1 = 0.497	x1 = 0.601	x1 = 0.701	x1 = 0.798	x1 = 0.9
298.15 K	4.186	3.77	3.34	2.965	2.667	2.4	2.192	2.031	1.922
303.15 K	3.573	3.237	2.907	2.611	2.37	2.156	1.988	1.866	1.784
308.15 K	3.092	2.811	2.537	2.301	2.114	1.943	1.815	1.719	1.663

C=Cc1ccccc1 + CCCCCCO
viscosity [mPa·s], 101.33 kPa
Conditions	x1 = 0.0998	x1 = 0.2024	x1 = 0.3078	x1 = 0.4006	x1 = 0.5007	x1 = 0.5988	x1 = 0.6993	x1 = 0.7986	x1 = 0.8985
298.15 K	3.131	2.522	1.956	1.613	1.293	1.134	0.972	0.891	0.808
303.15 K	2.773	2.177	1.703	1.446	1.154	1.051	0.89	0.84	0.747
308.15 K	2.296	1.88	1.497	1.298	1.114	1.008	0.86	0.81	0.693

CC(=O)c1ccc(Cl)cc1 + CCCCCCO
303.15 K, 101 kPa
Conditions	viscosity [mPa·s]
x1 = 0.0521	3.667
x1 = 0.1009	3.442
x1 = 0.1668	3.212
x1 = 0.2325	2.982
x1 = 0.3002	2.791
x1 = 0.4028	2.603
x1 = 0.5001	2.511
x1 = 0.5708	2.462
x1 = 0.641	2.437
x1 = 0.6998	2.428
x1 = 0.7655	2.448
x1 = 0.8376	2.502
x1 = 0.9007	2.589
x1 = 0.9513	2.717

CCCCCCCCO + CCCCCCO
viscosity [mPa·s], 101.8 kPa
Conditions	x2 = 0.1207	x2 = 0.3506	x2 = 0.5615	x2 = 0.7463	x2 = 0.9227
298.15 K	7.227	6.442	5.793	5.234	4.736
308.15 K	5.209	4.695	4.259	3.879	3.53
318.15 K	3.833	3.481	3.18	2.914	2.671

BrC(Br)Br + CCCCCO
viscosity [mPa·s], 101.3 kPa
Conditions	x1 = 0.097	x1 = 0.2	x1 = 0.296	x1 = 0.4	x1 = 0.499	x1 = 0.6	x1 = 0.701	x1 = 0.8	x1 = 0.9
298.15 K	3.255	3.006	2.729	2.477	2.275	2.114	1.997	1.91	1.873
303.15 K	2.831	2.621	2.399	2.2	2.039	1.928	1.822	1.762	1.742
308.15 K	2.452	2.296	2.113	1.954	1.829	1.741	1.67	1.631	1.628

CCC(C)(C)OC + CCCCCO
298.15 K, 101.33 kPa
Conditions	viscosity [mPa·s]
x1 = 0.0219	3.286
x1 = 0.0388	3.133
x1 = 0.0752	2.891
x1 = 0.1143	2.511
x1 = 0.1631	2.192
x1 = 0.211	1.93
x1 = 0.2721	1.651
x1 = 0.3347	1.417
x1 = 0.3464	1.374
x1 = 0.385	1.26
x1 = 0.4353	1.125
x1 = 0.4908	1.003
x1 = 0.5534	0.886
x1 = 0.6141	0.789
x1 = 0.6759	0.71
x1 = 0.7266	0.652
x1 = 0.8027	0.579
x1 = 0.8732	0.521
x1 = 0.9484	0.469
x2 = 0.0064	0.441

CCCCCCCCO + CCCCCO
101.33 kPa
Conditions	viscosity [mPa·s]
293.15 K, x2 = 0.1991	7.947
293.15 K, x2 = 0.3363	7.158
293.15 K, x2 = 0.4792	6.397
293.15 K, x2 = 0.6294	5.561
293.15 K, x2 = 0.7214	5.182
293.15 K, x2 = 0.911	4.341
298.15 K, x2 = 0.0849	7.229
298.15 K, x2 = 0.2664	6.385
298.15 K, x2 = 0.3696	5.903
298.15 K, x2 = 0.6046	4.921
298.15 K, x2 = 0.708	4.524
298.15 K, x2 = 0.8575	3.97
